Where “and” joins values, the source holds several entries; their conditions need not be identical. Equal values may be shown once.
Key:
[1] = parameters: method as in PMID 1729917, PMID 2790379; conditions: water-soluble analog compared with DAN; cited from earlier work
RyR1 W995A = biological target: T1, RyR1 W995A (Oryctolagus cuniculus, UniProt P11716, W996A); test: Time-lapse [Ca2+]ER measurement, HEK293 cells expressing RyR1 W995A; type: cell-based; conditions: 4 mM caffeine; for ER luminal [Ca2+] change (F/F0): Fig. 5H source data, RyR1-W995A, single replicates
T1 construct: expressed in transfected cells
Protocol: (§1) HEK293 cells stably expressing R-CEPIA1er and RyRs (WT RyR1, RyR1-W881A, RyR1-W995A, RyR1-R2163C, and WT RyR2)[26],[27] were used in this study. Briefly, the cells were seeded at a density of 2 × 10⁴ cells/well in a 96-well black, clear-bottom plate (Corning). Doxycycline (2 µg/mL) was added 12 h after seeding, and the medium was replaced 24 h later with HEPES-buffered Krebs solution (5 mM HEPES, pH 7.4; 140 mM NaCl; 5 mM KCl; 2 mM CaCl₂; 1 mM MgCl₂; and 11 mM glucose). Fluorescence measurements were conducted using a FlexStation 3 fluorometer (Molecular Devices) at 37 °C. The R-CEPIA1er was excited at 560 nm, emitted at 610 nm, and captured every 10 seconds over 300 seconds. Different concentrations of compound, dissolved in buffer containing 1% DMSO, were added 100 s after recording began. The fluorescence changes (F/F₀) were calculated by dividing the average fluorescence of the last 100 seconds (F) by that of the first 100 seconds (F₀). All measurements were performed in triplicate.

RyR1 W881A = biological target: T2, RyR1 W881A (Oryctolagus cuniculus, UniProt P11716, W882A); test: Time-lapse [Ca2+]ER measurement, HEK293 cells expressing RyR1 W881A; type: cell-based; conditions: 4 mM caffeine; for ER luminal [Ca2+] change (F/F0): Fig. 5H source data, RyR1-W881A, single replicates
T2 construct: expressed in transfected cells
Protocol: as §1

WT RyR2 = test: Time-lapse [Ca2+]ER measurement, HEK293 cells expressing WT RyR2; type: cell-based; conditions: for ER luminal [Ca2+] change (F/F0): Fig. 5D source data, single replicates
Protocol: as §1

O=C1CN(/N=C/c2ncc(-c3ccc(Br)cc3)o2)C(=O)N1 [AZU, Azumolene]
solubility relative to DAN [1]: approximately 30 fold

O=C(C[C@@H](NCCCO)C(=O)O)Nc1ccc2ccccc2c1 [RI-2]
ER luminal [Ca2+] change (F/F0) (RyR1 W995A; RI-2 0.1 uM): 1.018 and 1 and 0.9822
ER luminal [Ca2+] change (F/F0) (RyR1 W995A; RI-2 0.3 uM): 1.035 and 1.023 and 0.9731
ER luminal [Ca2+] change (F/F0) (RyR1 W995A; RI-2 1 uM): 1.011 and 1.046 and 0.9965
ER luminal [Ca2+] change (F/F0) (RyR1 W995A; RI-2 3 uM): 1.0547 and 1.017 and 1.01
ER luminal [Ca2+] change (F/F0) (RyR1 W995A; RI-2 10 uM): 1.05 and 1.027 and 0.98
ER luminal [Ca2+] change (F/F0) (RyR1 W995A; RI-2 30 uM): 1.073 and 0.9504 and 1.033
ER luminal [Ca2+] change (F/F0) (RyR1 W995A; RI-2 100 uM): 0.9659 and 1.079 and 1.107
inhibitory effect in time-lapse ER Ca2+ measurements (RyR1 W995A; RyR1 W995A): completely lost
ER luminal [Ca2+] change (F/F0) (RyR1 W881A; RI-2 0.1 uM): 0.9939 and 0.9815 and 1.025
ER luminal [Ca2+] change (F/F0) (RyR1 W881A; RI-2 0.3 uM): 0.9808 and 0.9609 and 0.9633
ER luminal [Ca2+] change (F/F0) (RyR1 W881A; RI-2 1 uM): 0.959 and 0.9789 and 1.039
ER luminal [Ca2+] change (F/F0) (RyR1 W881A; RI-2 3 uM): 0.968 and 1.003 and 1.025
ER luminal [Ca2+] change (F/F0) (RyR1 W881A; RI-2 10 uM): 0.9988 and 0.9974 and 1.012
ER luminal [Ca2+] change (F/F0) (RyR1 W881A; RI-2 30 uM): 1.035 and 0.9972 and 1.041
ER luminal [Ca2+] change (F/F0) (RyR1 W881A; RI-2 100 uM): 0.9975 and 1.115 and 0.9708
inhibitory effect in time-lapse ER Ca2+ measurements (RyR1 W881A; RyR1 W881A): completely lost
ER luminal [Ca2+] change (F/F0) (WT RyR2; RI-2 0.1 uM): 1.012 and 0.991 and 0.9966
ER luminal [Ca2+] change (F/F0) (WT RyR2; RI-2 0.3 uM): 1.053 and 1.031 and 0.9893
ER luminal [Ca2+] change (F/F0) (WT RyR2; RI-2 1 uM): 1.071 and 0.9532 and 1.019
ER luminal [Ca2+] change (F/F0) (WT RyR2; RI-2 3 uM): 0.989 and 1.026 and 1.009
ER luminal [Ca2+] change (F/F0) (WT RyR2; RI-2 10 uM): 1.0308 and 1.04 and 0.9817
ER luminal [Ca2+] change (F/F0) (WT RyR2; RI-2 30 uM): 1.051 and 0.9858 and 1.027
ER luminal [Ca2+] change (F/F0) (WT RyR2; RI-2 100 uM): 1.1169 and 1.011 and 1.1
effect on ER luminal [Ca2+] (WT RyR2; dose-dependent [Ca2+]ER measurements): no significant effect

— PMC12627627 (Nature Communications, 2025)
